# Patent US9139608B2 (priority 2010, dated 2015)
# Marks after values point to notes of the source that are not given here.
# What was measured:
# [1] = tested on: acetic acid induced colitis; assay: Acetic acid induced colitis in rats; assay type: in vivo, Male Wistar rats; conditions: 50 mg/kg p.o. once daily, pretreatment for 3 days, n = 6
# Source text: The acetic-acid induced colitis is a model of IBD with a similarity of the inflammatory mediators to that of acute human intestinal inflammation.
# Procedure: In this model, initial injury was an epithelial necrosis and edema that variably extended into the lamina propria, submucosa, or external muscle layers, depending of the concentrations and length of exposure to acetic acid. […] Rats were fasted for 24 hrs, anesthetized and a cannula that has 3 mm diameter was inserted into the anus to the depth of 8 cm for instilling 2 ml of 3% acetic acid into the colon for 30 s. After 24 hrs, animals were sacrificed by cervical dislocation, the colon was isolated and the parameters of colitis were measured. […] The reversal of acetic acid induced conditions such as increased colon weight and colon weight to length ratio, which indicated beneficial effects of test drugs on colitis. These effects were further confirmed by decrease in macroscopic lesion score and myeloperoxidase activity in colon tissues.
# [2] = tested on: inflammatory bowel disease; assay: Prospective study in patients with IBD, patient reported outcome; assay type: in vivo, Humans; design: key to Bleeding, Patient Recorded Outcome / Frequent trips to the bathroom, Patient Recorded Outcome / Dependence on medication diarrhea and pain, Patient Recorded Outcome / Abdominal pain, Patient Recorded Outcome / Diarrhea, Patient Recorded Outcome: 0—Absence; 1—Mild; 2—Moderate; 3—Severe; conditions: 300 mg twice daily for 6 months; for Abdominal pain, Patient Recorded Outcome / Bleeding, Patient Recorded Outcome / Dependence on medication diarrhea and pain, Patient Recorded Outcome / Diarrhea, Patient Recorded Outcome / Frequent trips to the bathroom, Patient Recorded Outcome: IBD
# Method: A prospective study to assess the efficacy of the test drug in patients with IBD was conducted.
# Thereafter, the efficacy of the test drug was analyzed on the basis of patient reported outcome taken at the beginning and end of the study period. Observations: It was observed that all patients were experiencing relief from IBD related symptoms such as abdominal pain, diarrhea, rectal bleeding, fever, nausea and vomiting. It was further observed that there was significant improvement in bowel control which was seen from reduced frequency of visits to restrooms, dependence on diarrhoea medication and pain associated with bowel movement.
# hemorrhoids = assay: Prospective uncontrolled pilot study in patients with hemorrhoids, patient reported outcome; assay type: in vivo, Humans; conditions: for Bloody stool, Median Value of Patient Reported Outcome / Difficulty to sit or walk, Median Value of Patient Reported Outcome / Edema, Median Value of Patient Reported Outcome / Itching, Median Value of Patient Reported Outcome / Pain, Median Value of Patient Reported Outcome: hemorrhoids, n = 5, scale 0 - Absence to 5 - Severe
# Method: A prospective uncontrolled pilot study to access the efficacy of the test drug in patients with hemorrhoids was conducted. […] The efficacy of the test drug was analyzed on the basis of patient reported outcome taken at the beginning and end of the study period. […] It was further observed that there was significant relief in pain and irritation associated with bowel movement by the end of the treatment period.
# histamine induced ulcers = assay: Histamine (stress) induced ulcers in rats, prophylactic; assay type: in vivo, Male Wistar rats; conditions: then Histamine 300 mg/kg i.p., n = 6
# Source text: Stress induced gastric lesion is a condition that can cause or aggravate inflammatory reactions in the GI tract.
# [3] = tested on: H. pylori (ATCC 26695, strain MS-5); assay: H. Pylori infected rats with NSAID induced ulcers (RUT and PCR); assay type: in vivo, Helicobacter Pylori
# [4] = Pharmacokinetic study: availability of test drug at site of action; assay type: in vivo; conditions: healthy rats, single oral dose 250 mg/kg, feces 0-24 h
# Method: The blood samples were collected at 0, 0.25, 0.50, 1, 2, 3, 4, 5 and 6 hours after dosing. Plasma was obtained by centrifugation of blood at 7000 rpm for 15 min at 4° C. and kept at −20° C. until analysis was carried out. The animals were kept in the metabolic cages for collection of urine and feces.
# TNBS induced IBD = assay: TNBS induced colitis in rats; assay type: in vivo, Male Wistar rats
# Source text: In addition, increased body weight, decreased ulcer index and myeloperoxidase activity in colon is seen.
# The trinitrobenzenesulfonic acid (TNBS) induced colitis is one of the standard animal models used for IBD. In this model, a single intracolonic administration of TNBS damages the colonic epithelium and induces prolonged chronic inflammation.
# Procedure: In this study, Male Wistar rats (280-291 g) were fasted for 48 hrs, and put under anaesthesia. A 3 mm diameter cannula was inserted into the anus to the depth of 8 cm and 25 mg of TNBS dissolved in 0.25 ml of 30% ethanol solution was injected to each rat. The rats were positioned tail up for 1 minute. […] A healthy control group receiving only saline but no TNBS was maintained. On day 11, each group of rats were sacrificed by cervical dislocation and the colon was isolated for physical examination. Colon samples were preserved in 10% neutral formalin solution for histopathological evaluation.
# Naproxen induced ulcers = Naproxen induced ulcers in rats, prophylactic; assay type: in vivo, Male Wistar rats; conditions: then Naproxen 30 mg/kg p.o., n = 6
# Source text: Gastric lesions induced by NSAIDS drugs such as Naproxen can aggravate inflammatory reactions in the GI tract.
# ethanol induced ulcers = assay: Ethanol induced ulcers in rats, prophylactic; assay type: in vivo, Male Wistar rats; conditions: then Ethanol 8 ml/kg p.o., n = 6
# Method: Consumption of alcohol is another major factor resulting in gastric lesions.
# The mean ulcer area in this study was measured to be 174.4 mm^2±5.814 mm^2 in the control group indicating the ulcerogenic effect of ethanol.
# [5] = After Treatment, 300 mg twice daily for 15 days
# [6] = rats pretreated with 30 mg/kg p.o.
# [7] = rats pretreated with 60 mg/kg p.o.
# [8] = rats pretreated with 120 mg/kg p.o.
# [9] = TNBS induced IBD in rats, 50 mg/kg p.o. once daily, 10 days of treatment, n = 6
# [10] = colon, TNBS induced IBD in rats, 50 mg/kg p.o. once daily, 10 days of treatment, n = 6
structure (smiles),measurement,setting,value
"C[C@H]1[C@H](C)CC[C@]2(C(=O)OC3O[C@H](CO[C@H]4O[C@H](CO)[C@@H](O[C@@H]5O[C@@H](C)[C@H](O)[C@@H](O)[C@H]5O)[C@H](O)[C@H]4O)[C@@H](O)[C@H](O)[C@H]3O)CC[C@]3(C)C(=CCC4[C@@]5(C)C[C@@H](O)[C@H](O)[C@@](C)(CO)[C@@H]5CC[C@]43C)[C@H]12 (stereo partly drawn) [Test Drug, Asiaticoside]",Colon length,[1],16.22 ± 0.63 mm
same,Colon weight,[1],1.53 ± 0.10 g
same,Colon width,[1],0.71 ± 0.05 mm
same,Microscopic score,[1]; colon,4.33 ± 0.71
same,Myeloperoxidase activity,[1]; colon,0.02 ± 0.002 U/mg
same,"Abdominal pain, Patient Recorded Outcome","[2]; Patient 1, After",1
same,"Bleeding, Patient Recorded Outcome","[2]; Patient 1, After",0
same,"Dependence on medication diarrhea and pain, Patient Recorded Outcome","[2]; Patient 1, After",0
same,"Diarrhea, Patient Recorded Outcome","[2]; Patient 1, After",0
same,"Frequent trips to the bathroom, Patient Recorded Outcome","[2]; Patient 1, After",0
same,"Abdominal pain, Patient Recorded Outcome","[2]; Patient 1, Before",3
same,"Bleeding, Patient Recorded Outcome","[2]; Patient 1, Before",3
same,"Dependence on medication diarrhea and pain, Patient Recorded Outcome","[2]; Patient 1, Before",3
same,"Diarrhea, Patient Recorded Outcome","[2]; Patient 1, Before",3
same,"Frequent trips to the bathroom, Patient Recorded Outcome","[2]; Patient 1, Before",3
same,"Abdominal pain, Patient Recorded Outcome","[2]; Patient 2, After",0
same,"Bleeding, Patient Recorded Outcome","[2]; Patient 2, After",0
same,"Dependence on medication diarrhea and pain, Patient Recorded Outcome","[2]; Patient 2, After",0
same,"Diarrhea, Patient Recorded Outcome","[2]; Patient 2, After",0
same,"Frequent trips to the bathroom, Patient Recorded Outcome","[2]; Patient 2, After",1
same,"Abdominal pain, Patient Recorded Outcome","[2]; Patient 2, Before",3
same,"Bleeding, Patient Recorded Outcome","[2]; Patient 2, Before",3
same,"Dependence on medication diarrhea and pain, Patient Recorded Outcome","[2]; Patient 2, Before",3
same,"Diarrhea, Patient Recorded Outcome","[2]; Patient 2, Before",3
same,"Frequent trips to the bathroom, Patient Recorded Outcome","[2]; Patient 2, Before",3
same,"Abdominal pain, Patient Recorded Outcome","[2]; Patient 3, After",1
same,"Bleeding, Patient Recorded Outcome","[2]; Patient 3, After",0
same,"Dependence on medication diarrhea and pain, Patient Recorded Outcome","[2]; Patient 3, After",1
same,"Diarrhea, Patient Recorded Outcome","[2]; Patient 3, After",2
same,"Frequent trips to the bathroom, Patient Recorded Outcome","[2]; Patient 3, After",0
same,"Abdominal pain, Patient Recorded Outcome","[2]; Patient 3, Before",3
same,"Bleeding, Patient Recorded Outcome","[2]; Patient 3, Before",3
same,"Dependence on medication diarrhea and pain, Patient Recorded Outcome","[2]; Patient 3, Before",3
same,"Diarrhea, Patient Recorded Outcome","[2]; Patient 3, Before",3
same,"Frequent trips to the bathroom, Patient Recorded Outcome","[2]; Patient 3, Before",3
same,"incidences of joint pain, skin diseases or eye related complications",[2]; three IBD patients,"no incidences of joint pain, skin diseases or eye related complications"
same,tolerability,[2]; three IBD patients,well tolerated
same,"Bloody stool, Median Value of Patient Reported Outcome",hemorrhoids; [5],0
same,"Difficulty to sit or walk, Median Value of Patient Reported Outcome",hemorrhoids; [5],1
same,"Edema, Median Value of Patient Reported Outcome",hemorrhoids; [5],1
same,"Itching, Median Value of Patient Reported Outcome",hemorrhoids; [5],2
same,"Pain, Median Value of Patient Reported Outcome",hemorrhoids; [5],2
same,"Bloody stool, Median Value of Patient Reported Outcome",hemorrhoids; Before Treatment,5
same,"Difficulty to sit or walk, Median Value of Patient Reported Outcome",hemorrhoids; Before Treatment,5
same,"Edema, Median Value of Patient Reported Outcome",hemorrhoids; Before Treatment,3
same,"Itching, Median Value of Patient Reported Outcome",hemorrhoids; Before Treatment,5
same,"Pain, Median Value of Patient Reported Outcome",hemorrhoids; Before Treatment,5
same,relief of rectal bleeding,"hemorrhoids; five hemorrhoid patients, 300 mg twice daily",all patients were relieved of rectal bleeding on the 3rd day of treatment
same,Area of Ulceration,histamine induced ulcers; [6],9.242 ± 0.415* mm^2
same,Area of Ulceration,histamine induced ulcers; [7],7.062 ± 0.362*** mm^2
same,Area of Ulceration,histamine induced ulcers; [8],4.598 ± 0.323*** mm^2
same,ulcer area,[3]; H. Pylori infected rats with NSAID induced ulcers,dose dependent and time dependent reduction
same,"eradication of H. Pylori infection (RUT, PCR)","[3]; H. pylori infected rats with Naproxen induced ulcers, 120 mg/kg p.o. twice daily",not effective in H. Pylori eradication
same,"eradication of H. Pylori infection (RUT, PCR)","[3]; H. pylori infected rats with Naproxen induced ulcers, 240 mg/kg p.o. once daily",not effective in H. Pylori eradication
same,antibacterial action on H. Pylori infection,"[3]; H. pylori infected rats with Naproxen induced ulcers, 360 mg/kg p.o. once daily",rapid antibacterial action on 3rd week
same,"eradication of H. Pylori infection (RUT, PCR)","[3]; H. pylori infected rats with Naproxen induced ulcers, 360 mg/kg p.o. once daily, 9 weeks",eradication of H. Pylori infection in 9 weeks
same,drug recovered from fecal matter,[4],about 81.42%
same,Colon length,TNBS induced IBD; [9],14.14 ± 0.53 mm
same,Colon weight,TNBS induced IBD; [9],1.71 ± 0.07 g
same,Colon width,TNBS induced IBD; [9],0.73 ± 0.13 mm
same,Body weight,"TNBS induced IBD; TNBS induced IBD in rats, Day 0, before treatment, n = 6",252.67 ± 3.121^ns1
same,Body weight,"TNBS induced IBD; TNBS induced IBD in rats, Day 11 (10 days of treatment), 50 mg/kg p.o. once daily, n = 6",293.00 ± 0.84***^
same,Body weight,"TNBS induced IBD; TNBS induced IBD in rats, Normal (Day −2), before treatment, n = 6",286.50 ± 3.14^ns1
same,rectal bleeding,"TNBS induced IBD; TNBS induced IBD model, post treatment after TNBS administration",significantly reduced after 3rd day
same,Microscopic score,TNBS induced IBD; [10],4.40 ± 0.68
same,Myeloperoxidase activity,TNBS induced IBD; [10],0.02 ± 0.0003 U/mg
same,Area of Ulceration,Naproxen induced ulcers; [6],5.49 ± 0.212^ns mm^2
same,Area of Ulceration,Naproxen induced ulcers; [7],4.52 ± 0.169**^ mm^2
same,Area of Ulceration,Naproxen induced ulcers; [8],2.632 ± 0.146***^ mm^2
same,Area of Ulceration,ethanol induced ulcers; [6],159.3 ± 4.846* mm^2
same,Area of Ulceration,ethanol induced ulcers; [7],137.6 ± 4.069*** mm^2
same,Area of Ulceration,ethanol induced ulcers; [8],110.4 ± 2.305*** mm^2
